Assay results from US10787413B2, “Derivatives of curcuminoids and use thereof as an anticancer agent” (CHINA MEDICAL UNIVERSITY, priority 2016, dated 2020).

Tests used:
[1] = Solubility in water or alcohol; assay type: physicochemical; settings: compared with curcumin
[2] = tested on: MDA-MB-231 cells; test: Western blot analysis of treated cells; assay type: cell-based, human
Method: After treatments, cells were harvested, washed, and suspended in PBS containing proteinase inhibitors and then disrupted with sonication. Protein concentrations were estimated using the Protein Assay kit from Bio-Rad (Hercules, Calif., USA). Samples were resolved with SDS-PAGE and transferred to a polyvinylidene difluoride membrane (EMD Millipore). Each membrane was blocked in 5% (w/v) non-fat milk in Tris-buffered saline with 0.1% (v/v) Tween-20 for 1 h followed by incubation with specific primary antibodies at 4° C. overnight. Each membrane was then incubated with horseradish peroxidase-conjugated secondary antibodies at room temperature for 1 h. Protein signals were detected with the Immobilon Western Chemiluminescent HRP Substrate (EMD Millipore) and visualized using the LAS-4000 imaging system (Fuji, Tokyo, Japan)^25.

[3] = tested on: MDA-MB-157; test: Cell viability, MDA-MB-157 breast cancer cells; assay type: cell-based; settings: Homo sapiens; MDA-MB-157 (Triple negative), treated for 24 h
Method: Cell viability was evaluated by measuring the reduction in MTT to yield blue formazan. Cells were cultured in 96-well plates, allowed to attach overnight, and then treated with compounds. After treatment, MTT solution (1 mg/ml) was added to each well, and plates were incubated for another 4 h. Medium were removed, blue formazan was dissolved in DMSO, and the absorbance was read at 570 nm^20.

SMILES: COc1cc(/C=C/C(=O)/C=C(O)/C=C/c2ccc(OC(=O)C(C)(CO)CO)c(OC)c2)ccc1OC(=O)C(C)(CO)CO [Compound 21a, ((1E,3Z,6E)-3-Hydroxy-5-oxohepta-1,3,6-triene-1,7-diyl)bis(2-methoxy-4,1-phenylene) bis(3-hydroxy-2-(hydroxymethyl)-2-methylpropenoate)]
- solubility in either water or alcohol [1]: better than that of curcumin
- levels of Cyclin B and CDK 1 ([2]; 5 μM, 0-24 h): down-regulated
- levels of Bcl-2, Bcl-x ([2]; 10 μM, 0-24 h): downregulated
- levels of CHOP, Bip ([2]; 10 μM, 0-24 h): up-regulated
- levels of DR5, FADD, Bax ([2]; 10 μM, 0-24 h): up-regulated
- levels of Ero1, PD1, PERK1, Calnexin, IRE1α ([2]; 10 μM, 0-24 h): downregulated
- levels of Atg5, Atg7, Atg12, Beclin, p62 and LC3B ([2]; 10 μM, 4-24 h, time-dependent): induced
- IC50 [3]: 9.23 ± 0.11 µM
